The source of these data is article PMC3136501 (PLoS ONE, 2011).

This test deals with T1, human OCT3 (Homo sapiens, UniProt O75751).
T1 sequence (O75751 1-556): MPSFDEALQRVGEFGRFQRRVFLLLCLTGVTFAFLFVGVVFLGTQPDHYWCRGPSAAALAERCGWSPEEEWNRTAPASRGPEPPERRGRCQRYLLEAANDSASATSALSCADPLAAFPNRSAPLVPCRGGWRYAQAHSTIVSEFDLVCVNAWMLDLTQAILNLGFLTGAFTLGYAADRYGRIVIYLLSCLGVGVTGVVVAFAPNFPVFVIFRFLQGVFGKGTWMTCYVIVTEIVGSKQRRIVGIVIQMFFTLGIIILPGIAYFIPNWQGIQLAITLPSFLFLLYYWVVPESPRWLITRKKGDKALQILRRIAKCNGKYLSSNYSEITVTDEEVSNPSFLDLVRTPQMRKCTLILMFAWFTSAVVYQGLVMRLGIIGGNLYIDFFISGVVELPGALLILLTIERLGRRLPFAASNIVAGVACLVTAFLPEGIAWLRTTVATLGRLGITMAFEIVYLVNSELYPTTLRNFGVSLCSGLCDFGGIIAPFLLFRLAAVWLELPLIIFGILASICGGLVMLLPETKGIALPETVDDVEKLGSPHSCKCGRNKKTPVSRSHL
Briefly: Inhibition of OCT3-mediated metformin uptake in stably transfected HEK cells. Format: cell-based. The note with it: for IC50: 5 µM [14C]metformin uptake, 5 min, HEK-OCT3, means ± SE of 3 experiments; for OCT3-mediated metformin uptake at low PPI concentrations: low concentrations of PPI, Figure 3. The protocol:
SLC22A1 cDNA and SLC22A2 cDNA had been PCR-amplified from human liver and kidney, respectively, as reported elsewhere and cDNAs were provided by the German Cancer Research Center; the study and the use of the tissue were approved by the institutional review board of the German Cancer Center, Heidelberg, Germany. Since the data were analyzed anonymously, and tissues were left-over samples from diagnostic procedures, written informed consent had not been required and obtained. IRB specifically waived the need for consent due to the fact the human tissue material used was fully anonymized. SLC22A3 cDNA was amplified using SLC22A3-TrueClone (Origene, Rockville, MD, USA) as the template. SLC22A1 cDNA was cloned into the expression vector pcDNA3.1/Hygro(-) (Invitrogen, Darmstadt, Germany), SLC22A2 and SLC22A3 cDNA into pcDNA3.1(+) (Invitrogen). Each transporter cDNA was sequenced and the respective deduced amino acid sequence was identical to the published reference protein sequence (OCT1: NP_003048.1; OCT2: NP_003049.2; OCT3: NP_068812.1). The human embryonic kidney 293 (HEK) cell line was obtained from the American Type Culture Collection. HEK cells were grown in DMEM (Sigma) supplemented with 10% fetal bovine serum (Sigma), 100 U⋅ml^−1 penicillin, and 100 µg⋅ml^−1 streptomycin (Lonza, Basel, Switzerland) at 37°C and 5% CO2. HEK cells were transfected with Metafectene Pro (Biontex, München, Germany). Selection of clones stably expressing OCT1 was carried out with 0.5 mg⋅ml^−1 hygromycin as described. Similarly, clones stably expressing OCT2 or OCT3 were selected with 800 µg⋅ml^−1 G418. HEK cells stably transfected with the empty pcDNA3.1(+) vector served as controls (HEK-Co). Cells were incubated with 5 mM butyrate 24 h before use to increase protein levels of recombinant transporters.
HEK cells (400000 cells/well) were seeded into 24-well cell culture plates (Greiner Bio-One, Frickenhausen, Germany) and grown for 48 h. Cell adherence was improved by coating plates with poly-L-lysine (Biochrom AG, Berlin, Germany) prior to cell plating. All uptake studies were carried out at 37°C as described. For uptake measurements, cells were firstly washed with uptake buffer (145 mM NaCl, 5 mM hydroxyethylpiperazine ethanesulfonic acid, 3 mM KCl, 1 mM CaCl2, 0.5 mM MgCl2, 5 mM glucose, pH 7.4, [46]) prewarmed to 37°C. […] Uptake was stopped at indicated time points by removing the uptake buffer and immediately washing the cells 3 times with ice-cold uptake buffer. Cells were lysed with 0.2% SDS and intracellular radioactivity was determined by liquid scintillation counting (Hidex 300SL TDCR liquid scintillation counter, Turku, Finland). For measuring inhibition of OCT-mediated metformin uptake by PPIs, 5 µM [^14C]metformin uptake was measured in the presence of different PPI concentrations and stopped after 5 min (OCT1, OCT3) or 5 sec (OCT2).
OCT-specific metformin uptake was obtained by subtracting metformin uptake in the presence of 2 mM unlabeled 1-methyl-4-phenylpyridinium (MPP) from that in its absence. […] OCT-specific metformin uptake in the presence of a PPI was then calculated as percentage of that in the absence of the respective PPI (100% uninhibited). For each PPI concentration, 3 individual experiments each with 3 parallel measurements were performed. Apparent IC50 values for inhibition of metformin uptake by PPIs were calculated for each individual experiment by fitting the values to the Hill equation using GraphPad Prism 4 (GraphPad Software Inc., La Jolla, CA, USA). Values in Table 1 are given as the means ± SE of the 3 individual experiments.

In general, IC50 refers to the point on the concentration scale where inhibition reaches its midpoint. Low readings indicate greater potency, high ones weaker potency. As for `Cc1c(OCC(F)(F)F)ccnc1C[S+]([O-])c1nc2ccccc2[nH]1` (stereo not drawn) [Lansoprazole], the IC50 worked out at 3.1 ± 1.3 µM.
On to `C[n+]1ccc(-c2ccccc2)cc1` [MPP, 1-methyl-4-phenylpyridinium], for which the “Metformin uptake by HEK-OCT3 in the presence of MPP” value (5 µM metformin, 2 mM unlabeled MPP) was “almost completely absent”.
In turn, `COc1ccc2[nH]c([S+]([O-])Cc3ncc(C)c(OC)c3C)nc2c1` (stereo not drawn) [Omeprazole] had an IC50 of 22 ± 2.2 µM.
In the case of `COc1ccnc(C[S+]([O-])c2nc3ccc(OC(F)F)cc3[nH]2)c1OC` (stereo not drawn) [Pantoprazole], the midpoint of inhibition, the IC50, lay at 22.9 ± 5.2 µM and the “OCT3-mediated metformin uptake at low PPI concentrations” value (“OCT3-mediated metformin uptake” below) is reported as “activated”.
Take `COCCCOc1ccnc(C[S+]([O-])c2nc3ccccc3[nH]2)c1C` (stereo not drawn) [Rabeprazole]: the IC50 is 3 ± 0.8 µM and the “OCT3-mediated metformin uptake” value is recorded as “activated”.
For `COc1ccc2[nH]c([S+]([O-])Cc3ncc(C)c(OC)c3C)nc2n1` (stereo not drawn) [Tenatoprazole], 14.7 ± 2.4 µM corresponded to half-maximal inhibition (IC50) and the “OCT3-mediated metformin uptake” value is listed as “activated”.
